According to the supplement of paper PMC13207355:

Experiments:
Details in all cases: exposure time: 72 h
[1] = tested on: E28 (patient-derived glioblastoma stem cells of classical subtype); test: surviving fraction (nuclei count normalised to DMSO); higher = more cells surviving (less toxic)
[2] = tested on: E21 (patient-derived glioblastoma stem cells of mesenchymal subtype); test: as above
[3] = tested on: E57 (patient-derived glioblastoma stem cells of mesenchymal subtype); test: as above
[4] = tested on: E13 (patient-derived glioblastoma stem cells of classical subtype); test: as above
[5] = tested on: E34 (patient-derived glioblastoma stem cells of proneural subtype); test: as above
[6] = tested on: FT3469 (normal neural stem cell line); test: as above
[7] = tested on: E31 (patient-derived glioblastoma stem cells of proneural subtype); test: as above
[8] = tested on: E28; test: phenotypic distance (Euclidean, principal components) from DMSO controls (arbitrary units); higher = stronger morphological change
[9] = tested on: E21; test: as above
[10] = tested on: E57; test: as above
[11] = tested on: E13; test: as above
[12] = tested on: E34; test: as above
[13] = tested on: FT3469; test: as above
[14] = tested on: E31; test: as above
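Throughout, for phenotypic distance (Euclidean, principal components) from DMSO controls: cell Painting imaging in 384-well plates, CellProfiler features reduced to at least 20 principal components, Euclidean distance versus same-plate DMSO vehicle wells (0.1% v/v), median over six images per well.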
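Throughout, for surviving fraction (nuclei count normalised to DMSO): nuclei counted by high-content imaging of Hoechst-stained cells in laminin-coated 384-well plates, relative to 0.1% DMSO vehicle wells, with staurosporine as cell-death control.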

## CCc1c2c(nc3ccc(OC(=O)N4CCC(N5CCCCC5)CC4)cc13)-c1cc3c(c(=O)n1C2)COC(=O)[C@]3(O)CC [Irinotecan]
[1]; 4.1 nM
  surviving fraction: 1.21
[1]; 12.3 nM
  surviving fraction: 1.07
[1]; 37 nM
  surviving fraction: 1.07
[1]; 111.1 nM
  surviving fraction: 0.969
[1]; 333.3 nM
  surviving fraction: 0.765
[1]; 1000 nM
  surviving fraction: 0.541
[1]; 3000 nM
  surviving fraction: 0.302
[2]; 4.1 nM
  surviving fraction: 1.03
[2]; 12.3 nM
  surviving fraction: 1.08
[2]; 37 nM
  surviving fraction: 0.918
[2]; 111.1 nM
  surviving fraction: 1.03
[2]; 333.3 nM
  surviving fraction: 0.883
[2]; 1000 nM
  surviving fraction: 0.589
[2]; 3000 nM
  surviving fraction: 0.124
[3]; 4.1 nM
  surviving fraction: 1.08
[3]; 12.3 nM
  surviving fraction: 1.02
[3]; 37 nM
  surviving fraction: 0.935
[3]; 111.1 nM
  surviving fraction: 0.931
[3]; 333.3 nM
  surviving fraction: 1.01
[3]; 1000 nM
  surviving fraction: 0.658
[3]; 3000 nM
  surviving fraction: 0.189
[4]; 4.1 nM
  surviving fraction: 0.966
[4]; 12.3 nM
  surviving fraction: 1.03
[4]; 37 nM
  surviving fraction: 1
[4]; 111.1 nM
  surviving fraction: 0.975
[4]; 333.3 nM
  surviving fraction: 0.974
[4]; 1000 nM
  surviving fraction: 0.784
[4]; 3000 nM
  surviving fraction: 0.418
[5]; 4.1 nM
  surviving fraction: 1.01
[5]; 12.3 nM
  surviving fraction: 0.922
[5]; 37 nM
  surviving fraction: 0.796
[5]; 111.1 nM
  surviving fraction: 0.981
[5]; 333.3 nM
  surviving fraction: 0.942
[5]; 1000 nM
  surviving fraction: 0.675
[5]; 3000 nM
  surviving fraction: 0.542
[6]; 4.1 nM
  surviving fraction: 1.03
[6]; 12.3 nM
  surviving fraction: 0.94
[6]; 37 nM
  surviving fraction: 0.96
[6]; 111.1 nM
  surviving fraction: 0.904
[6]; 333.3 nM
  surviving fraction: 0.739
[6]; 1000 nM
  surviving fraction: 0.748
[6]; 3000 nM
  surviving fraction: 0.648
[7]; 4.1 nM
  surviving fraction: 0.946
[7]; 12.3 nM
  surviving fraction: 1.1
[7]; 37 nM
  surviving fraction: 0.899
[7]; 111.1 nM
  surviving fraction: 0.922
[7]; 333.3 nM
  surviving fraction: 0.946
[7]; 1000 nM
  surviving fraction: 0.579
[7]; 3000 nM
  surviving fraction: 0.144
[8]; 4.1 nM
  phenotypic distance: 0.5
[8]; 12.3 nM
  phenotypic distance: 0.951
[8]; 37 nM
  phenotypic distance: 0.608
[8]; 111.1 nM
  phenotypic distance: 0.966
[8]; 333.3 nM
  phenotypic distance: 1.51
[8]; 1000 nM
  phenotypic distance: 3.61
[8]; 3000 nM
  phenotypic distance: 4.49
[9]; 4.1 nM
  phenotypic distance: 0.618
[9]; 12.3 nM
  phenotypic distance: 1.21
[9]; 37 nM
  phenotypic distance: 0.691
[9]; 111.1 nM
  phenotypic distance: 1.31
[9]; 333.3 nM
  phenotypic distance: 1.88
[9]; 1000 nM
  phenotypic distance: 3.97
[9]; 3000 nM
  phenotypic distance: 5.51
[10]; 4.1 nM
  phenotypic distance: 0.685
[10]; 12.3 nM
  phenotypic distance: 0.929
[10]; 37 nM
  phenotypic distance: 0.554
[10]; 111.1 nM
  phenotypic distance: 0.781
[10]; 333.3 nM
  phenotypic distance: 1.52
[10]; 1000 nM
  phenotypic distance: 3.59
[10]; 3000 nM
  phenotypic distance: 7.66
[11]; 4.1 nM
  phenotypic distance: 0.394
[11]; 12.3 nM
  phenotypic distance: 1.01
[11]; 37 nM
  phenotypic distance: 0.761
[11]; 111.1 nM
  phenotypic distance: 0.76
[11]; 333.3 nM
  phenotypic distance: 1.35
[11]; 1000 nM
  phenotypic distance: 2.55
[11]; 3000 nM
  phenotypic distance: 5.65
[12]; 4.1 nM
  phenotypic distance: 0.814
[12]; 12.3 nM
  phenotypic distance: 0.597
[12]; 37 nM
  phenotypic distance: 0.83
[12]; 111.1 nM
  phenotypic distance: 0.866
[12]; 333.3 nM
  phenotypic distance: 2.22
[12]; 1000 nM
  phenotypic distance: 4.25
[12]; 3000 nM
  phenotypic distance: 3.72
[13]; 4.1 nM
  phenotypic distance: 0.701
[13]; 12.3 nM
  phenotypic distance: 1.1
[13]; 37 nM
  phenotypic distance: 1.06
[13]; 111.1 nM
  phenotypic distance: 1.22
[13]; 333.3 nM
  phenotypic distance: 1.84
[13]; 1000 nM
  phenotypic distance: 2.27
[13]; 3000 nM
  phenotypic distance: 2.46
[14]; 4.1 nM
  phenotypic distance: 0.6
[14]; 12.3 nM
  phenotypic distance: 0.75
[14]; 37 nM
  phenotypic distance: 0.721
[14]; 111.1 nM
  phenotypic distance: 0.569
[14]; 333.3 nM
  phenotypic distance: 1.07
[14]; 1000 nM
  phenotypic distance: 1.39
[14]; 3000 nM
  phenotypic distance: 3.35
